We go through 13 compounds from PubChem BioAssay (NCI).

Common to all, as to assay: growth of human tumour cells (NCI), 48 h
In assay [1] the test system is HOP-62 NSCLC.
Assay [2] relates to NCI-H226 lung.
For assay [3], the system named is SNB-19 CNS.
In assay [4] the test system is U251 CNS.
Assay [5] has as its system HCT-15 colon.
The subject of assay [6] is KM12 colon.
For assay [7], the system named is ACHN renal.
In assay [8] the test system is COLO 205 colon.
The test system of assay [9] is UO-31 renal.
For assay [10], the system named is SF-539 CNS.

Where “and” joins values, the source holds several entries; their conditions need not be identical. Identical values can stand only once.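 Step 1: Grow cells in 96-well plates. Step 2: Expose to compound for 48 hours at 5 concentrations. Step 3: Interpolate endpoints linearly; if unreached, use highest concentration. Here, GI50 denotes the concentration required for 50% inhibition of growth. TGI: concentration producing complete growth inhibition.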 Some results are limits rather than exact numbers.

In the case of `COc1ccc(C(O)c2cc3c(N)c(C(=O)Nc4cccc(Br)c4)sc3nc2C)cc1` (centres undefined), the GI50 in [1] is 0.207 µM; in [2] it was 0.18 µM; in [3], 0.159 µM; in [4], 0.119 µM; in assay [5] it was 0.121 µM; in assay [6], 0.117 µM. The GI50 in assay [7] is 0.23 µM; in assay [8], 0.127 µM; in assay [9], 0.271 µM; in [10], 0.0248 µM. Also, the TGI is above 42.2 µM in assay [1]; above 47 µM in [2]; above 100 µM in [3]; above 41.1 µM in assay [4]; above 43 µM in [5]; above 46.2 µM in assay [7]. Besides, the TGI in assay [8] is 0.773 µM; in assay [9] it was above 31.3 µM; in assay [10], 0.0833 µM.

Turning to `O=c1[nH]c(=S)[nH]c(O)c1/C=C1\C=CC=N1`, the TGI in [1] is 97.6 µM; in assay [2], 33.4 µM; in assay [3], above 100 µM; in assay [4] it was 89.2 µM; in assay [5], 14.8 µM; in assay [6] it was 39.6 µM. In addition, the TGI in assay [7] worked out at 29.6 µM; in assay [8] it was 32 µM; in assay [9], 31.2 µM; in assay [10] it was 40.5 µM.

Regarding `C#Cc1ccc(NC(=O)c2ccc(/C=C/C(=O)c3nccn3C)cc2)cc1`, the GI50 in [1] is 0.612 µM; in assay [2], 0.605 µM; in assay [3], 0.512 µM; in assay [4], 0.347 µM; in assay [5], 0.28 µM; in assay [6], 0.421 µM. Moreover, the GI50 in assay [7] is 0.445 µM; in assay [8] it was 0.592 µM; in assay [9] it was 0.346 µM; in assay [10] it was 0.42 µM. Further, the TGI in assay [1] stood at 1.65 µM; in assay [2], 2 µM; in [3], 1.35 µM; in [4] it was 0.757 µM; in assay [5], 1.6 µM; in [6] it was 0.99 µM. Further, the TGI in assay [7] was 0.839 µM; in [8] it was 1.36 µM; in assay [9] it was 0.677 µM; in assay [10] it was 0.801 µM.

Turning to `CC#CC(=O)N1CCC[C@H]1c1nc(-c2ccc(C(=O)Nc3ccccn3)cc2)c2c(N)nccn12`, the GI50 was above 100 µM in assay [1]; above 65.4 µM in assay [2]; above 79.9 µM in assay [3]; above 92.4 µM in assay [4]; above 72.3 µM in assay [5]; above 72.2 µM in assay [6]. Further, the GI50 was 23.8 µM in assay [7], 85.4 µM in assay [8], 32.1 µM in [9] and above 100 µM in assay [10]. Further, the TGI in [1], in assay [2], in assay [3], in [4], in assay [5] and in assay [6] was above 100 µM throughout. Moreover, the TGI in [7], in assay [8], in assay [9] and in [10] was above 100 µM in each case.

As to `COc1ccc(/C=C2\COc3ccc(-c4ccccc4)cc3C2=O)cc1O`, the GI50 in assay [1] was 5.83 µM; in assay [2], 15.3 µM; in [3], 3.38 µM; in assay [4] it was 1.83 µM; in assay [5], 1.69 µM; in [6], 1.75 µM. The GI50 in assay [7] was 3.13 µM; in assay [8], 3.68 µM; in assay [9] it was 4.16 µM; in [10], 2.45 µM. Further, the TGI in [1] was found to be 19.4 µM; in assay [2], 32.9 µM; in [3] it was 17.2 µM; in assay [4], 4.27 µM; in assay [5], 4.37 µM; in assay [6], 4.09 µM. The TGI in assay [7] was 13.1 µM; in [8] it was 21.9 µM; in assay [9], 16.1 µM; in [10], 6.38 µM.

Take `O=Cc1coc2ccccc2c1=O`: the TGI worked out at 43.8 µM in assay [1]; 84.4 µM in assay [2]; 70.4 µM in assay [3]; 65.2 µM in assay [4]; 37.4 µM in [5]; 69.9 µM in assay [6]. Moreover, the TGI in assay [7] came out at 45.2 µM; in assay [8], 30.4 µM; in assay [9], 28.8 µM; in assay [10], 31.9 µM.

For `Cc1nc(NC(=O)N2CCC[C@H]2C(N)=O)sc1-c1ccnc(C(C)(C)C(F)(F)F)c1`, the GI50 is 8.06 µM and > 10 µM in [1]; 5.26 µM and 4.54 µM in assay [2]; 8.6 µM and > 10 µM in assay [3]; 3.22 µM and 5.54 µM in [4]; 1.36 µM and 2.81 µM in assay [5]; 15.4 µM and > 10 µM in [6]. Moreover, the GI50 was 5.6 µM and > 10 µM in assay [7]; 2.75 µM and 1.38 µM in assay [8]; 2.48 µM and 2.07 µM in [9]; 3.93 µM and 4.6 µM in [10]. Besides, the TGI in assay [1] was above 75.1 µM; in assay [2], 45.7 µM and > 10 µM; in assay [3], 66.2 µM and > 10 µM; in assay [4], 18.7 µM and > 10 µM; in [5], 47 µM and > 10 µM; in assay [6], above 91.5 µM. In addition, the TGI in assay [7] was above 100 µM; in assay [8], 19.6 µM and > 10 µM; in assay [9] it was 36.7 µM and > 10 µM; in assay [10], 24.3 µM and > 10 µM.

In the case of `NC(CSC(c1ccccc1)(c1ccccc1)c1ccc2ccccc2c1)C(=O)O` (centres undefined), the GI50 in [1] is 0.114 µM; in assay [2] it was 9.27 µM; in assay [3], 0.066 µM; in assay [4], 0.0408 µM; in assay [5], 0.175 µM; in assay [6], 0.0804 µM. Moreover, the GI50 was 0.911 µM in assay [7], 0.0816 µM in assay [8], 3.1 µM in [9] and 0.0384 µM in [10]. Moreover, the TGI in assay [1] was 14.4 µM; in assay [2], 24.5 µM; in assay [3], 17.3 µM; in assay [4] it was 12.1 µM; in assay [5] it was 23.7 µM; in [6], 3.21 µM. For the same compound, the TGI in [7] was 30.8 µM; in assay [8], 0.875 µM; in [9] it was 24.3 µM; in assay [10], 3.07 µM.

For the compound `CCC1(OC(C)=O)C(=O)OCc2c1cc1n(c2=O)Cc2cc3ccccc3nc2-1` (centres undefined), the TGI was 9.81 µM in assay [1]; 4.55 µM in assay [2]; above 100 µM in assay [3]; 2.64 µM in assay [4]; above 100 µM in assay [5]; above 100 µM in assay [6]. Further, the TGI in assay [7] is 12.1 µM; in [8] it was above 100 µM; in assay [9] it was 8.19 µM; in assay [10], 5.23 µM.

With `Cn1c(=O)c2[nH]c(COc3ccc(C(C)(C)C)cc3)nc2n(C)c1=O`, the GI50 in assay [1] was 35.4 µM; in assay [2], 25.6 µM; in assay [3], 82.3 µM; in [4], 37.5 µM; in assay [5], 19.9 µM; in assay [6] it was 15.9 µM. The GI50 was 9.58 µM in [7], 50.3 µM in assay [8], 13.6 µM in assay [9] and 36.7 µM in assay [10]. The TGI in [1] is above 100 µM; in assay [2] it was above 100 µM; in [3], above 100 µM; in assay [4], above 100 µM; in assay [5], above 100 µM; in assay [6], 44 µM. Further, the TGI in [7] was 89.8 µM; in assay [8] it was above 100 µM; in assay [9] it was 89.5 µM; in assay [10] it was above 100 µM.

With `O=[As](O)(O)c1ccc(Cc2ccc([As](=O)(O)O)cc2)cc1`, the TGI in assay [1] was determined as 3.6 µM; in [2], 7.7 µM; in assay [3], 2.65 µM; in assay [4], 1.51 µM; in assay [5], 3.21 µM; in [6], 5.44 µM. Further, the TGI stood at 2.31 µM in assay [7], 1.9 µM in [8], 2.63 µM in assay [9] and 0.542 µM in [10].

As to `Fc1ccccc1C1CC(C(c2ccccc2)c2ccccc2)=Nc2ccccc2S1` (centres undefined), the TGI in [1] stood at 26.9 µM; in assay [2], 32.6 µM; in [3], 32.2 µM; in [4], 25.5 µM; in [5] it was 30.8 µM; in assay [6], 23.1 µM. Further, the TGI amounted to 43.6 µM in [7], 27.9 µM in [8], 28.8 µM in [9] and 50.4 µM in [10].

For `O=C1/C(=C/c2cccs2)CCC/C1=C\c1cccs1`, the GI50 in assay [1] is 21.9 µM; in assay [2], 49.1 µM; in assay [3] it was above 54.1 µM; in assay [4], 30.6 µM; in assay [5] it was above 100 µM; in [6], above 100 µM. Further, the GI50 is 57 µM in [7], above 100 µM in [8], above 42.7 µM in assay [9] and 59.2 µM in assay [10]. In addition, the TGI in assay [1] is 49.2 µM; in assay [2], above 100 µM; in assay [3], above 100 µM; in assay [4] it was above 100 µM; in assay [5], above 100 µM; in assay [6], above 100 µM. Besides, the TGI was above 100 µM in assay [7], above 100 µM in [8], above 85.7 µM in assay [9] and above 100 µM in assay [10].
